Source: ChEMBL document CHEMBL5385913, “First-in-Class Dual EZH2-HSP90 Inhibitor Eliciting Striking Antiglioblastoma Activity In Vitro and In Vivo” (J Med Chem, 2024)
Active and inactive are the calls of the source. The rule behind the calls is not given here.

What was measured:
[1] = tested on: GBM; assay: Effect on homologous recombination in TMZ-resistant patient-derived human GBM cells assessed as fold decrease in TOP2A gene expression at 2 uM (reference value: 6.78); format: functional
[2] = molecular target: Histone-lysine N-methyltransferase EZH2 (Homo sapiens) (UniProt Q15910); assay: Inhibition of EZH2-mediated H3K27 trimethylation in TMZ-resistant patient-derived human GBM cells upto 10 uM measured after 48 hrs by Western blot analysis; format: cell-based
Sequence of Histone-lysine N-methyltransferase EZH2 (Homo sapiens) (Q15910 whole entry, looked up): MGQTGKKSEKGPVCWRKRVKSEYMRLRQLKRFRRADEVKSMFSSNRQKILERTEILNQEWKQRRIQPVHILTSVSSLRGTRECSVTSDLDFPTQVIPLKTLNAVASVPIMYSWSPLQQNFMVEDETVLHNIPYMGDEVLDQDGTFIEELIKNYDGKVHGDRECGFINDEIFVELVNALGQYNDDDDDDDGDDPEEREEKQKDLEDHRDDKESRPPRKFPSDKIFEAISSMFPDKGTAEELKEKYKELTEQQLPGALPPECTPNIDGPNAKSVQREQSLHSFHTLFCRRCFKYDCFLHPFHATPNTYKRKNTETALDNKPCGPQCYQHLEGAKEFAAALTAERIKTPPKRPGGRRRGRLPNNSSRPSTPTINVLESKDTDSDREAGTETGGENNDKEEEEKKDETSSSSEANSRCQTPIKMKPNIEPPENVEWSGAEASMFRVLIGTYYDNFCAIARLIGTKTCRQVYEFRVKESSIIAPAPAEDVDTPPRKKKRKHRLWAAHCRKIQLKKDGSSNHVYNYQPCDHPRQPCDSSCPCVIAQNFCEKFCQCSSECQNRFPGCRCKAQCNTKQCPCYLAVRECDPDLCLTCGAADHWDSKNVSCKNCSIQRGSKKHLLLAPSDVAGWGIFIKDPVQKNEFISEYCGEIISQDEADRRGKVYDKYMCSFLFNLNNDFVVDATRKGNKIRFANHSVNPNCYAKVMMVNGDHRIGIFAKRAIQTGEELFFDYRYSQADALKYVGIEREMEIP

[3] = tested on: GBM; assay: Effect on homologous recombination in TMZ-resistant patient-derived human GBM cells assessed as fold decrease in RMI1 gene expression at 2 uM (reference value: 3.44); format: functional
[4] = tested on: GBM; assay: Downregulation of RPS6 gene expression in TMZ-resistant patient-derived human GBM cells by KEGG analysis; format: functional, cell-based
[5] = Downregulation of CENPO level in TMZ-resistant patient-derived human GBM cells assessed as fold change at 2 uM by GlioVis analysis (reference value: 3.12); format: functional
[6] = Downregulation of CENPF level in TMZ-resistant patient-derived human GBM cells assessed as fold change at 2 uM by GlioVis analysis (reference value: 6.6); format: functional
[7] = tested on: GBM; assay: Downregulation of CENPA level in TMZ-resistant patient-derived human GBM cells upto 5 uM incubated for 48 to 72 hrs by Western blot analysis; format: functional, cell-based; conditions: time 48-72 hrs
[8] = tested on: GBM; assay: Downregulation of YWHAG gene expression in TMZ-resistant patient-derived human GBM cells by KEGG analysis; format: functional, cell-based
[9] = tested on: GBM; assay: Upregulation of ZYX gene expression in TMZ-resistant patient-derived human GBM cells by KEGG analysis; format: functional, cell-based
[10] = tested on: GBM; assay: Upregulation of ARF3 gene expression in TMZ-resistant patient-derived human GBM cells by KEGG analysis; format: functional, cell-based
[11] = tested on: GBM; assay: Upregulation of EHD1 gene expression in TMZ-resistant patient-derived human GBM cells by KEGG analysis; format: functional, cell-based
[12] = Downregulation of CENPP level in TMZ-resistant patient-derived human GBM cells assessed as fold change at 2 uM by GlioVis analysis (reference value: 2.18); format: functional
[13] = tested on: GBM; assay: Suppression of cell division in TMZ-resistant patient-derived human GBM cells by GSEA analysis; format: functional, cell-based
[14] = tested on: GBM; assay: Upregulation of HSPA8 gene expression in TMZ-resistant patient-derived human GBM cells by KEGG analysis; format: functional, cell-based
[15] = Downregulation of NASP level in TMZ-resistant patient-derived human GBM cells assessed as fold change at 2 uM by GlioVis analysis (reference value: 5.08); format: functional
[16] = tested on: GBM; assay: Downregulation of MCM3 gene expression in TMZ-resistant patient-derived human GBM cells by KEGG analysis; format: functional, cell-based
[17] = Downregulation of MIS18BP1 level in TMZ-resistant patient-derived human GBM cells assessed as fold change at 2 uM by GlioVis analysis (reference value: 3.87); format: functional
[18] = tested on: GBM; assay: Downregulation of SRSF7 gene expression in TMZ-resistant patient-derived human GBM cells by KEGG analysis; format: functional, cell-based
[19] = tested on: GBM; assay: Upregulation of SERPINE1 gene expression in TMZ-resistant patient-derived human GBM cells by KEGG analysis; format: functional, cell-based
[20] = molecular target: Histone-lysine N-methyltransferase EZH2 (Homo sapiens) (UniProt Q15910); assay: Inhibition of EZH2-mediated H3K27 trimethylation in patient-derived human GBM cells upto 10 uM measured after 48 hrs by Western blot analysis; format: cell-based
[21] = Downregulation of CENPK level in TMZ-resistant patient-derived human GBM cells assessed as fold change at 2 uM by GlioVis analysis (reference value: 3.71); format: functional
[22] = tested on: GBM; assay: Downregulation of HNRNPA3 gene expression in TMZ-resistant patient-derived human GBM cells by KEGG analysis; format: functional, cell-based
[23] = tested on: GBM; assay: Downregulation of CDK1 level in TMZ-resistant patient-derived human GBM cells upto 5 uM incubated for 48 to 72 hrs by Western blot analysis; format: functional, cell-based; conditions: time 48-72 hrs
[24] = tested on: GBM; assay: Antitumor activity against TMZ-resistant patient-derived human GBM cells xenografted in NOD.CB17-Prkdcscid/NCrCrl mouse assessed as reduction in tumor growth at 20 mg/kg, ip treated twice per week; format: functional, organism-based
[25] = tested on: GBM; assay: Downregulation of RPL26 gene expression in TMZ-resistant patient-derived human GBM cells by KEGG analysis; format: functional, cell-based
[26] = Downregulation of OIP5 level in TMZ-resistant patient-derived human GBM cells assessed as fold change at 2 uM by GlioVis analysis (reference value: 2.31); format: functional
[27] = tested on: GBM; assay: Downregulation of M phase-related gene expression in TMZ-resistant patient-derived human GBM cells; format: functional, cell-based
[28] = tested on: GBM; assay: Induction of ROS production in patient-derived human GBM cells assessed as decrease in GPX1 level upto 10 uM measured after 48 hrs by Western blot analysis; format: functional, cell-based
[29] = Downregulation of CENPA level in TMZ-resistant patient-derived human GBM cells assessed as fold change at 2 uM by GlioVis analysis (reference value: 3.64); format: functional
[30] = tested on: GBM; assay: Effect on homologous recombination in TMZ-resistant patient-derived human GBM cells assessed as fold decrease in EME1 gene expression at 2 uM (reference value: 2.94); format: functional
[31] = tested on: GBM; assay: Downregulation of CENPE level in TMZ-resistant patient-derived human GBM cells upto 5 uM incubated for 48 to 72 hrs by Western blot analysis; format: functional, cell-based; conditions: time 48-72 hrs
[32] = Downregulation of CENPO level in TMZ-resistant patient-derived human GBM cells assessed as fold change at 2 uM by GlioVis analysis (reference value: 2.67); format: functional
[33] = tested on: GBM; assay: Upregulation of HSPA4 gene expression in TMZ-resistant patient-derived human GBM cells by KEGG analysis; format: functional, cell-based
[34] = tested on: GBM; assay: Downregulation of MCM7 gene expression in TMZ-resistant patient-derived human GBM cells by KEGG analysis; format: functional, cell-based
[35] = tested on: GBM; assay: Effect on homologous recombination in TMZ-resistant patient-derived human GBM cells assessed as fold decrease in MSH5 gene expression at 2 uM (reference value: 1.52); format: functional
[36] = tested on: GBM; assay: Effect on homologous recombination in TMZ-resistant patient-derived human GBM cells assessed as fold decrease in PSMC3IP gene expression at 2 uM (reference value: 2.71); format: functional

**Q.** Which results are given for `CCN(c1cc(-c2cccc(N(C)C(=O)c3cc(C(C)C)c(O)cc3O)c2)cc(C(=O)NCc2c(C)cc(C)[nH]c2=O)c1C)C1CCOCC1`?
**A.** fold change (FC) [1]: 2.68; inhibition [2]: Active; fold change (FC) [3]: 2.33; Activity [4]: Active; fold change (FC) [5]: 1.84; fold change (FC) [6]: 3.46; Activity [7]: Active; Activity [8]: Active; Activity [9]: Active; Activity [10]: Active; Activity [11]: Active; fold change (FC) [12]: 1.27; Activity [13]: Active; Activity [14]: Active; fold change (FC) [15]: 3.41; Activity [16]: Active; fold change (FC) [17]: 2.43; Activity [18]: Active; Activity [19]: Active; inhibition [20]: Active; fold change (FC) [21]: 1.33; Activity [22]: Active; Activity [23]: Active; Activity [24]: Active; Activity [25]: Active; fold change (FC) [26]: 0.66; Activity [27]: Active; Activity [28]: Active; fold change (FC) [29]: 0.81; fold change (FC) [30]: 0.75; Activity [31]: Active; fold change (FC) [32]: 1.53; Activity [33]: Active; Activity [34]: Active; fold change (FC) [35]: 0.44; fold change (FC) [36]: 1.17
